ChEMBL document CHEMBL5647690, “Inhibition of demethylases by GSK-J1/J4” (Nature, 2014)

Assays:
Macrophage = assay: Antiinflammatory activity against human primary macrophages assessed as inhibition of LPS-activated TNF-alpha production incubated for 6 hrs by ELISA; assay type: functional, cell-based
[1] = Inhibition of epitope-tagged KDM5B (1 to 752 residues)(unknown origin) transfected in human U2OS cells using H3K4me2 peptide as substrate; assay type: cell-based
[2] = molecular target: T1, Lysine-specific demethylase 3A (Homo sapiens, UniProt Q9Y4C1); assay: Inhibition of KDM3A (2 to 1322 residues)(unknown origin) by Alphalisa assay
T1 sequence (Q9Y4C1 whole entry): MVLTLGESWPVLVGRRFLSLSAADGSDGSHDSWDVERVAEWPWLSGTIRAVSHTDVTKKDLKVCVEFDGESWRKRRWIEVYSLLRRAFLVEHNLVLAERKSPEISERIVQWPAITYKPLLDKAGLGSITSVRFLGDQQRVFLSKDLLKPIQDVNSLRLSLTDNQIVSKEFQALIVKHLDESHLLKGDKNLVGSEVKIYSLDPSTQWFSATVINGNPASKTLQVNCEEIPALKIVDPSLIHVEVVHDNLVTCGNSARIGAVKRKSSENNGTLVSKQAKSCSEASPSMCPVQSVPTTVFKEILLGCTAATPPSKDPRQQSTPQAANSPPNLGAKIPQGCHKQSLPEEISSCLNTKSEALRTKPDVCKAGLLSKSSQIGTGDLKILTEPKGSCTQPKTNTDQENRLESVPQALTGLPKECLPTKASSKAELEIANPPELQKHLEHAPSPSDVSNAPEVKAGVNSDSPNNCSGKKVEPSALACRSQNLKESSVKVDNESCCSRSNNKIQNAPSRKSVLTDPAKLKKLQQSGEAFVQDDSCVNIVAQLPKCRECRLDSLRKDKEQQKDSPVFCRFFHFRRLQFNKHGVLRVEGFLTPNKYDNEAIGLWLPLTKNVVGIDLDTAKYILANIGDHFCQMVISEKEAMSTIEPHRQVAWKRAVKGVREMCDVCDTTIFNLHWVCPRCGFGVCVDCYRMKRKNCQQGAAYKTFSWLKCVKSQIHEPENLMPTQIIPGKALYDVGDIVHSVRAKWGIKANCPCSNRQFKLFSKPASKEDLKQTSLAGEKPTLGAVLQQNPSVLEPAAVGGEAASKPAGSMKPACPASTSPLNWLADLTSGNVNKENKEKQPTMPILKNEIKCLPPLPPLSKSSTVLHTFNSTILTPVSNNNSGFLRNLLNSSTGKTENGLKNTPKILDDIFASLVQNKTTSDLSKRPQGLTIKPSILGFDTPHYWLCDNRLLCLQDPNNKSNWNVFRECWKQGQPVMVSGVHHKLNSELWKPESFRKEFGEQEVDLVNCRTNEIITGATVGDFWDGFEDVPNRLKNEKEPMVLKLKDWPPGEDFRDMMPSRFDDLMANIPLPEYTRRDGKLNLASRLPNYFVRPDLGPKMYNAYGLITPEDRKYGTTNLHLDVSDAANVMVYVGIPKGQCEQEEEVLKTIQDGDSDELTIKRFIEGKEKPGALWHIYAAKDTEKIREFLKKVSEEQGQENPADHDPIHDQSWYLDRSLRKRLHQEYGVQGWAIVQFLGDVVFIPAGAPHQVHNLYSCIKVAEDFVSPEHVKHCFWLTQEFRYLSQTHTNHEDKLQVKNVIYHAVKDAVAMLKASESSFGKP

[3] = molecular target: T2, Lysine-specific demethylase 4C (Homo sapiens, UniProt Q9H3R0); assay: Inhibition of epitope-tagged full length KDM4C (unknown origin) transfected in human U2OS cells using H3K9me3 peptide as substrate; assay type: cell-based
T2 sequence (Q9H3R0 whole entry): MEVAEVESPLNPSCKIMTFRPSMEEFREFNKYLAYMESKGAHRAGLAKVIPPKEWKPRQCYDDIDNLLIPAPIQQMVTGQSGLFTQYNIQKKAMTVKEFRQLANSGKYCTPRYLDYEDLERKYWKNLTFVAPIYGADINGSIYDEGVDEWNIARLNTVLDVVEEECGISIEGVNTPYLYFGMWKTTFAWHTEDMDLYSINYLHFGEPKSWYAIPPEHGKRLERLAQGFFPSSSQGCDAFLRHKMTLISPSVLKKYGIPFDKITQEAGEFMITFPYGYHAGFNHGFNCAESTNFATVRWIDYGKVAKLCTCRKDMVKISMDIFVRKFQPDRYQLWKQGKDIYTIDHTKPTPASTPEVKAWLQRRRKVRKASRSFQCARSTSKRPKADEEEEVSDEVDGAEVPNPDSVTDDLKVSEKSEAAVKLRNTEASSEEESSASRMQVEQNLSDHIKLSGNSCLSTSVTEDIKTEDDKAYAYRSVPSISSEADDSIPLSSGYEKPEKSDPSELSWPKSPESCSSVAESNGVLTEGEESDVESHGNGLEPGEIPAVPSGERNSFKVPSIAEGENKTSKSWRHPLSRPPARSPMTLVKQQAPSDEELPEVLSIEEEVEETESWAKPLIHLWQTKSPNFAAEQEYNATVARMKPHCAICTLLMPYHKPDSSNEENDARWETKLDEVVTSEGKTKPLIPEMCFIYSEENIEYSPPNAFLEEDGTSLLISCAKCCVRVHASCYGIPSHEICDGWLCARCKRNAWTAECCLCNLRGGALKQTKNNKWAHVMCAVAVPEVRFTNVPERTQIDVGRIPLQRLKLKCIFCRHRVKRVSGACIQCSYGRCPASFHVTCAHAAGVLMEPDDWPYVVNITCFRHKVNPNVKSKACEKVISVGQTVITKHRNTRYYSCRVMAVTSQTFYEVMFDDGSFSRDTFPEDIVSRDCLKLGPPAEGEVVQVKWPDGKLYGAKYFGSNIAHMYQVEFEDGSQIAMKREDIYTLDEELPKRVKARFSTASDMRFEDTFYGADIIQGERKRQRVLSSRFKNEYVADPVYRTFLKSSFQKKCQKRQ

[4] = molecular target: Lysine-specific demethylase 5A (Homo sapiens, UniProt P29375); assay: Inhibition of KDM5A (1 to 1090 residues)(unknown origin) by Alphalisa assay
Lysine-specific demethylase 5A, sequence (P29375 whole entry, the tested form may be a part): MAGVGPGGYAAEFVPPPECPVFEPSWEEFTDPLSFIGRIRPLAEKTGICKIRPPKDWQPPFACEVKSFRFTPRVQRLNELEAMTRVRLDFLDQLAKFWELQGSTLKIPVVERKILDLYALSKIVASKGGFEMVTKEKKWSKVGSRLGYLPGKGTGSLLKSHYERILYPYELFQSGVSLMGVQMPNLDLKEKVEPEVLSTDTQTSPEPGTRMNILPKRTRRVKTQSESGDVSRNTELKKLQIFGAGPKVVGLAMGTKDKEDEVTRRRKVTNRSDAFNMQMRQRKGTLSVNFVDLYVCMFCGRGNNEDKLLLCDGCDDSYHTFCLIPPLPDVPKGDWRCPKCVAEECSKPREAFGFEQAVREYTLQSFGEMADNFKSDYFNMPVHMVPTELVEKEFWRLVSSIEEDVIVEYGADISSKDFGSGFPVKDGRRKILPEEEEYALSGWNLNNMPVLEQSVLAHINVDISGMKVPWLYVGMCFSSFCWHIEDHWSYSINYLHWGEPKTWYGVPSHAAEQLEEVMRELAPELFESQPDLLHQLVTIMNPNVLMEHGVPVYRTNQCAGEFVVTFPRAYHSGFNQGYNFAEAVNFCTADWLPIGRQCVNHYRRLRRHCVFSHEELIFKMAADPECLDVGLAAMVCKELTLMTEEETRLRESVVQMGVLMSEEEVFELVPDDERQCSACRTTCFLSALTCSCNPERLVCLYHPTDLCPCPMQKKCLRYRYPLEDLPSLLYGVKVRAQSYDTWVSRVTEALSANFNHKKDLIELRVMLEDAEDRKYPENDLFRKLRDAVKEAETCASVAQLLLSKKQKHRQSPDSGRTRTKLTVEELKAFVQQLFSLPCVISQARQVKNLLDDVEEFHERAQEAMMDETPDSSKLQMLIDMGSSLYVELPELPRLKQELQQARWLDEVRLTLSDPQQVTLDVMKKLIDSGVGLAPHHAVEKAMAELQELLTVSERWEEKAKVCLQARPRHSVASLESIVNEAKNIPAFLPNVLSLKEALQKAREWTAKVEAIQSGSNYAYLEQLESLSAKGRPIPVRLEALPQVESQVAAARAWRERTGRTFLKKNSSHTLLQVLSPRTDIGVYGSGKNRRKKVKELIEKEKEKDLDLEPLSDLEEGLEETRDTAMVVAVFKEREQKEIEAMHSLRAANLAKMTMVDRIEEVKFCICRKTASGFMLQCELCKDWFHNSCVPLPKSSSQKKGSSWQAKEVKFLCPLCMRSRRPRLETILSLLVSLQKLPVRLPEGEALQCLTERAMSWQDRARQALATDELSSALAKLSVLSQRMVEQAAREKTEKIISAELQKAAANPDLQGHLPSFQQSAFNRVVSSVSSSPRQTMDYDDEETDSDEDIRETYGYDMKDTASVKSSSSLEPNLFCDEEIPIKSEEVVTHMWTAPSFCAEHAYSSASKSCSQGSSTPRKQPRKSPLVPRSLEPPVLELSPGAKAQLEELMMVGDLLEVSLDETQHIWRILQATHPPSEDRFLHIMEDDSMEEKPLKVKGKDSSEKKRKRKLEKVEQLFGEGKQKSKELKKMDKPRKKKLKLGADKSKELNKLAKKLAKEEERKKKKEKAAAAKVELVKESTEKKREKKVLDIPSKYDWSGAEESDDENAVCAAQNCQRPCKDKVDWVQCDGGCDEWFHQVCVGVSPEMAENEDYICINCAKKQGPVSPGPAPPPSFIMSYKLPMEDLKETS

Compound | IC50 (Macrophage) [µM] | IC50 [1] [µM] | IC50 [2] [µM] | IC50 [3] [µM] | IC50 [4] [µM]
CCOC(=O)CCNc1cc(N2CCc3ccccc3CC2)nc(-c2ccccn2)n1 | 9 | 3.1 | 8.5 | 7.3 | –
O=C(O)CCNc1cc(N2CCc3ccccc3CC2)nc(-c2ccccn2)n1 | – | – | – | – | 6.8
